Data taken from ChEMBL document CHEMBL3045561, “Feeding deterrents from Zanthoxylum schinifolium against two stored-product insects” (J Agric Food Chem, 2009).

Tests used:
Format in all cases: functional
[1] = tested on: Sitophilus zeamais; assay: Feeding deterrent activity against adult Sitophilus zeamais on compound pretreated wheat flour disks at 300 ppm after 3 days by flour disk bioassay
[2] = tested on: Sitophilus zeamais; assay: Feeding deterrent activity against adult Sitophilus zeamais on compound pretreated wheat flour disks assessed as food utilization rate at 30 ppm after 3 days by flour disk bioassay (reference value: 11.09 +/-1.12%)
[3] = tested on: Tribolium castaneum; assay: Feeding deterrent activity against adult Tribolium castaneum (red flour beetle) on compound pre-treated wheat flour disks assessed as relative growth rate at 3 ppm after 3 days by flour disk bioassay (reference value: 29.49 +/-1.35 ug/mg/day)
[4] = tested on: Sitophilus zeamais; assay: Feeding deterrent activity against adult Sitophilus zeamais on compound pretreated wheat flour disks at 3 ppm after 3 days by flour disk bioassay
[5] = tested on: Tribolium castaneum; assay: Feeding deterrent activity against adult Tribolium castaneum (red flour beetle) on compound pre-treated wheat flour disks at 1000 ppm after 3 days by flour disk bioassay
[6] = tested on: Tribolium castaneum; assay: Feeding deterrent activity against adult Tribolium castaneum (red flour beetle) on compound pre-treated wheat flour disks assessed as relative growth rate at 300 ppm after 3 days by flour disk bioassay (reference value: 29.49 +/-1.35 ug/mg/day)
[7] = tested on: Tribolium castaneum; assay: Feeding deterrent activity against adult Tribolium castaneum (red flour beetle) on compound pre-treated wheat flour disks assessed as mortality at 10 ppm after 3 days by flour disk bioassay (reference value: 0%)
[8] = tested on: Tribolium castaneum; assay: Feeding deterrent activity against adult Tribolium castaneum (red flour beetle) on compound pre-treated wheat flour disks at 30 ppm after 3 days by flour disk bioassay
[9] = tested on: Tribolium castaneum; assay: Feeding deterrent activity against adult Tribolium castaneum (red flour beetle) on compound pre-treated wheat flour disks assessed as food utilization rate at 100 ppm after 3 days by flour disk bioassay (reference value: 20.59 +/-1.47%)
[10] = tested on: Tribolium castaneum; assay: Feeding deterrent activity against adult Tribolium castaneum (red flour beetle) on compound pre-treated wheat flour disks assessed as mortality at 30 ppm after 3 days by flour disk bioassay (reference value: 0%)
[11] = tested on: Sitophilus zeamais; assay: Feeding deterrent activity against adult Sitophilus zeamais on compound pretreated wheat flour disks at 10 ppm after 3 days by flour disk bioassay
[12] = tested on: Tribolium castaneum; assay: Feeding deterrent activity against adult Tribolium castaneum (red flour beetle) on compound pre-treated wheat flour disks assessed as food utilization rate at 300 ppm after 3 days by flour disk bioassay (reference value: 20.59 +/-1.47%)
[13] = tested on: Sitophilus zeamais; assay: Feeding deterrent activity against adult Sitophilus zeamais on compound pretreated wheat flour disks assessed as relative food consumption rate at 100 ppm after 3 days by flour disk bioassay (reference value: 122.72 +/-4.32 ug/mg/day)
[14] = tested on: Sitophilus zeamais; assay: Feeding deterrent activity against adult Sitophilus zeamais on compound pretreated wheat flour disks assessed as relative growth rate at 30 ppm after 3 days by flour disk bioassay (reference value: 13.61 +/-1.13 ug/mg/day)
[15] = tested on: Tribolium castaneum; assay: Feeding deterrent activity against adult Tribolium castaneum (red flour beetle) on compound pre-treated wheat flour disks assessed as relative growth rate at 30 ppm after 3 days by flour disk bioassay (reference value: 29.49 +/-1.35 ug/mg/day)
[16] = tested on: Sitophilus zeamais; assay: Feeding deterrent activity against adult Sitophilus zeamais on compound pretreated wheat flour disks assessed as relative growth rate at 300 ppm after 3 days by flour disk bioassay (reference value: 13.61 +/-1.13 ug/mg/day)
[17] = tested on: Sitophilus zeamais; assay: Feeding deterrent activity against adult Sitophilus zeamais on compound pretreated wheat flour disks assessed as mortality at 30 ppm after 3 days by flour disk bioassay (reference value: 0%)
[18] = tested on: Sitophilus zeamais; assay: Feeding deterrent activity against adult Sitophilus zeamais on compound pretreated wheat flour disks assessed as mortality at 10 ppm after 3 days by flour disk bioassay (reference value: 0%)
[19] = tested on: Sitophilus zeamais; assay: Feeding deterrent activity against adult Sitophilus zeamais on compound pretreated wheat flour disks assessed as relative growth rate at 1000 ppm after 3 days by flour disk bioassay (reference value: 13.61 +/-1.13 ug/mg/day)
[20] = tested on: Sitophilus zeamais; assay: Feeding deterrent activity against adult Sitophilus zeamais on compound pretreated wheat flour disks assessed as food utilization rate at 300 ppm after 3 days by flour disk bioassay (reference value: 11.09 +/-1.12%)
[21] = tested on: Sitophilus zeamais; assay: Feeding deterrent activity against adult Sitophilus zeamais on compound pretreated wheat flour disks assessed as mortality at 3 ppm after 3 days by flour disk bioassay (reference value: 0%)
[22] = tested on: Tribolium castaneum; assay: Feeding deterrent activity against adult Tribolium castaneum (red flour beetle) on compound pre-treated wheat flour disks at 100 ppm after 3 days by flour disk bioassay
[23] = tested on: Tribolium castaneum; assay: Feeding deterrent activity against adult Tribolium castaneum (red flour beetle) on compound pre-treated wheat flour disks at 10 ppm after 3 days by flour disk bioassay
[24] = tested on: Sitophilus zeamais; assay: Feeding deterrent activity against adult Sitophilus zeamais on compound pretreated wheat flour disks assessed as food utilization rate at 3 ppm after 3 days by flour disk bioassay (reference value: 11.09 +/-1.12%)
[25] = tested on: Tribolium castaneum; assay: Feeding deterrent activity against adult Tribolium castaneum (red flour beetle) on compound pre-treated wheat flour disks assessed as food utilization rate at 10 ppm after 3 days by flour disk bioassay (reference value: 20.59 +/-1.47%)
[26] = tested on: Sitophilus zeamais; assay: Feeding deterrent activity against adult Sitophilus zeamais on compound pretreated wheat flour disks assessed as mortality at 300 ppm after 3 days by flour disk bioassay (reference value: 0%)
[27] = tested on: Tribolium castaneum; assay: Feeding deterrent activity against adult Tribolium castaneum (red flour beetle) on compound pre-treated wheat flour disks assessed as relative food consumption rate at 30 ppm after 3 days by flour disk bioassay (reference value: 143.22 +/-4.32 ug/mg/day)

| SMILES | FDI [1] [%] | ECI [2] [%] | Activity [3] [µg/mg/day] | FDI [4] [%] | FDI [5] [%] | Activity [6] [µg/mg/day] | mortality at 10 ppm [7] [%] | FDI [8] [%] | ECI [9] [%] | mortality at 30 ppm [10] [%] | FDI [11] [%] | ECI [12] [%] | Activity [13] [µg/mg/day] | Activity [14] [µg/mg/day] | Activity [15] [µg/mg/day] | Activity [16] [µg/mg/day] | mortality at 30 ppm [17] [%] | mortality at 10 ppm [18] [%] | Activity [19] [µg/mg/day] | ECI [20] [%] | other results |
| --- | --- | --- | --- | --- | --- | --- | --- | --- | --- | --- | --- | --- | --- | --- | --- | --- | --- | --- | --- | --- | --- |
| CCCCCCCc1cc(=O)c2ccccc2n1C [SCHINIFOLINE] | 72.35 | 10.07 | 28.85 | 1.47 | 98.34 | 1.6 | 0 | 45.07 | 11.57 | 0 | 10.28 | 7.53 | 50.29 | 9.06 | 13.13 | 2.04 | 2 | 0 | 0.4 | 5.92 | mortality at 3 ppm [21]: 0%; FDI [22]: 66.28%; FDI [23]: 18.64%; ECI [24]: 11.21%; ECI [25]: 20.32%; mortality at 300 ppm [26]: 6%; Activity [27]: 79.64 µg/mg/day |
| COc1ccc2c(OC)c3ccoc3nc2c1OC [SKIMMIANINE] | 60.24 | 10.34 | 27.92 | 3.53 | 89.56 | 3.17 | 0 | 30.12 | 13.72 | 0 | 10.21 | 10.03 | 59.65 | 9.6 | 15.31 | 3.07 | 0 | 0 | 0.77 | 6.81 | mortality at 3 ppm [21]: 0%; FDI [22]: 57.45%; FDI [23]: 13.21%; ECI [24]: 10.98%; ECI [25]: 19.41%; mortality at 300 ppm [26]: 4%; Activity [27]: 101.27 µg/mg/day |
